Test results from patent publication US10214546B2, “Btk inhibitors” (MERCK SHARP & DOHME CORP., priority 2014, dated 2019).
Read-outs that look alike come from different tables or passages of the source.

How the values were obtained:
[1] = target: BTK enzyme (recombinant full-length BTK, hBTK) (Homo sapiens (Human), UniProt Q06187); test: BTK enzymatic activity LANCE TR-FRET assay; type: biochemical; conditions: 50 pM hBTK, 25 μM ATP, 2 μM biotin-A5-peptide; compound range 1 μM to 0.017 nM; read-out: BTK binding IC50
[2] = test system: adenosine uptake into HeLa cells; test: [3H]Adenosine uptake assay in HeLa cells; type: cell-based; conditions: [3H]adenosine accumulation in HeLa cells, compound range 10 μM to 0.032 nM, read-out: ADU inhibition IC50
Method in brief: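 HeLa cells in HBSS + 5% FBS were preincubated 30 min at ambient temperature with compound (ten-point 1:3 series, 10 µM–[…] final), then given [3H]adenosine (added as a 500 nM solution) for 60 min. Cell-associated label was read by scintillating-plate proximity counting; IC50 from 4-parameter fit of cps versus log concentration.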

Sequence of BTK enzyme (recombinant full-length BTK, hBTK) (Q06187 whole entry): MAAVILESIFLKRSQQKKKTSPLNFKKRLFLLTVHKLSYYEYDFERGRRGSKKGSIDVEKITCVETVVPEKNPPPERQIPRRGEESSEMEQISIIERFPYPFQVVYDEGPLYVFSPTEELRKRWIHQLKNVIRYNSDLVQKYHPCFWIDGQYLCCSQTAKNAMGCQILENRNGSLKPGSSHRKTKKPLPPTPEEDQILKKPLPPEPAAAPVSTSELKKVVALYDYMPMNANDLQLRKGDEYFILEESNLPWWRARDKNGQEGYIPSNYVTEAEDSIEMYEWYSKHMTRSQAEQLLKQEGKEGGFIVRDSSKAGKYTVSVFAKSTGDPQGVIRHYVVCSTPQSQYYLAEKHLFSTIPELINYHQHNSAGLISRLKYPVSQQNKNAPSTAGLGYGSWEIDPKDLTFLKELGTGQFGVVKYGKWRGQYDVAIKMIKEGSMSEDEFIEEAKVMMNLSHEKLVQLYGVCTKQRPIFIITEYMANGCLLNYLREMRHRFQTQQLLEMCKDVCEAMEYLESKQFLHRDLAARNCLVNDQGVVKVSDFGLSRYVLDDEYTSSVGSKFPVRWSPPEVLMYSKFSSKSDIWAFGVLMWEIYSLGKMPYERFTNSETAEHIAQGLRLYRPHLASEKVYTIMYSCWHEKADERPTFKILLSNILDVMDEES

SMILES | IC50 [1] [nM] | IC50 ([2]; Homo sapiens, HeLa) [nM] | IC50 [2] [nM]
C[C@@](O)(c1ccc(-c2nc([C@@H]3CC[C@H]4CCC(=O)N4C3)n3c(F)cnc(N)c23)cc1)c1cccc(C(F)(F)F)c1 [Example 158, (6R,8aS)-6-[8-amino-5-fluoro-1-(4-{(1R)-1-hydroxy-1-[3-(trifluoromethyl)phenyl]ethyl}phenyl)imidazo [1,5-a]pyrazin-3-yl]hexahydroindolizin-3(2H)-one] | 4.7 | 6300 | –
CC(O)(c1ccc(-c2nc([C@@H]3CC[C@H]4CCC(=O)N4C3)n3ccnc(N)c23)cc1)c1cccc(C2CC2(F)F)c1 (stereo partly drawn) [Example 159, (6R,8aS)-6-[8-amino-1-(4-{1-[3-(2,2-difluorocyclopropyl)phenyl]-1-hydroxyethyl}phenyl)imidazo[1,5-a]pyrazin-3-yl]hexahydroindolizin-3(2H)-one] | 0.1 | – | 1880
CC(O)(c1ccc(-c2nc([C@@H]3CC[C@H]4CCC(=O)N4C3)n3ccnc(N)c23)cc1)c1cccc(C2CC2(F)F)c1 (stereo partly drawn) [Example 160, (6R,8aS)-6-[8-amino-1-(4-{1-[3-(2,2-difluorocyclopropyl)phenyl]-1-hydroxyethyl}phenyl)imidazo[1,5-a]pyrazin-3-yl]hexahydroindolizin-3(2H)-one] | 0.07 | – | 1840
CC1(C)CC(=O)N2C[C@@H](c3nc(-c4ccc([C@@](C)(O)c5cccc(C(F)(F)F)c5)cc4)c4c(N)nccn34)CC[C@@H]21 [Example 161, (6S,8aR)-6-[8-amino-1-(4-{(1R)-1-hydroxy-1-[3-(trifluoromethyl)phenyl]ethyl}phenyl)imidazo [1,5-a]pyrazin-3-yl]-1,1-dimethylhexahydroindolizin-3(2H)-one] | 0.27 | 2140 | –
CCOc1cc(C(C)(O)c2cccc(C(F)(F)F)c2)ccc1-c1nc([C@@H]2CC[C@H]3CCC(=O)N3C2)n2ccnc(N)c12 (stereo partly drawn) [Example 162, (6R,8aS)-6-[8-amino-1-(2-ethoxy-4-{1-hydroxy-1-[3-(trifluoromethyl)phenyl]ethyl}phenyl)imidazo [1,5-a]pyrazin-3-yl]hexahydroindolizin-3(2H)-one] | 0.63 | 4210 | –
CC1(C)CC(=O)N2C[C@@H](c3nc(-c4ccc([C@@](C)(O)c5cccc(C(F)(F)F)c5)cc4)c4c(N)nccn34)CC[C@@H]21 [Example 163, (6S,8aR)-6-[8-amino-1-(4-{(1R)-1-hydroxy-1-[3-(trifluoromethyl)phenyl]ethyl}phenyl)imidazo [1,5-a]pyrazin-3-yl]-1,1-dimethylhexahydroindolizin-3(2H)-one] | 169 | – | 1560
CC(O)(c1ccc(-c2nc([C@@H]3CC[C@H]4CCC(=O)N4C3)n3ccnc(N)c23)cc1)c1cccc(C2CC2(F)F)c1 (stereo partly drawn) [Example 164, (6R,8aS)-6-[8-amino-1-(4-{1-[3-(2,2-difluorocyclopropyl)phenyl]-1-hydroxyethyl}phenyl)imidazo[1,5-a]pyrazin-3-yl]hexahydroindolizin-3(2H)-one] | 48 | – | 830
CC(O)(c1ccc(-c2nc([C@@H]3CC[C@H]4CCC(=O)N4C3)n3ccnc(N)c23)cc1)c1cccc(C2CC2(F)F)c1 (stereo partly drawn) [Example 165, (6R,8aS)-6-[8-amino-1-(4-{1-[3-(2,2-difluorocyclopropyl)phenyl]-1-hydroxyethyl}phenyl)imidazo[1,5-a]pyrazin-3-yl]hexahydroindolizin-3(2H)-one] | 28.9 | – | 1090
CCOc1cc(C(C)(O)c2cccc(C)c2)ccc1-c1nc([C@@H]2CC[C@H]3CCC(=O)N3C2)n2ccnc(N)c12 (stereo partly drawn) [Example 166, (6R,8aS)-6-(8-amino-1-{2-ethoxy-4-[1-hydroxy-1-(3-methylphenyl)ethyl]phenyl}imidazo[1,5-a]pyrazin-3-yl)hexahydroindolizin-3(2H)-one] | 2 | – | 10000
CCOc1cc(C(C)(O)c2cccc(C(F)(F)F)c2)ccc1-c1nc([C@@H]2CC[C@H]3CCC(=O)N3C2)n2ccnc(N)c12 (stereo partly drawn) [Example 167, (6R,8aS)-6-[8-amino-1-(2-ethoxy-4-{1-hydroxy-1-[3-(trifluoromethyl)phenyl]ethyl}phenyl)imidazo [1,5-a]pyrazin-3-yl]hexahydroindolizin-3(2H)-one] | 20.6 | – | 2410
CCOc1cc(C(C)(O)c2cccc(C)c2)ccc1-c1nc([C@@H]2CC[C@H]3CCC(=O)N3C2)n2ccnc(N)c12 (stereo partly drawn) [Example 168, (6R,8aS)-6-(8-amino-1-{2-ethoxy-4-[1-hydroxy-1-(3-methylphenyl)ethyl]phenyl}imidazo[1,5-a]pyrazin-3-yl)hexahydroindolizin-3(2H)-one] | 60.3 | – | 3650
C[C@@](O)(c1ccc(-c2nc([C@H]3CN4C(=O)CC[C@@H]4CO3)n3ccnc(N)c23)cc1)c1cccc(C(F)(F)F)c1 [Example 169, (3R,8aR)-3-[8-amino-1-(4-{(1R)-1-hydroxy-1-[3-(trifluoromethyl)phenyl]ethyl}phenyl)imidazo[1,5-a]pyrazin-3-yl]hexahydro-6H-pyrrolo[2,1-c][1,4]oxazin-6-one] | 7.2 | 4530 | –
C[C@@](O)(c1ccc(-c2nc([C@@H]3CC[C@H]4N(C3)C(=O)CCC4(F)F)n3ccnc(N)c23)cc1)c1cccc(C(F)(F)F)c1 [Example 170, (7R,9aR)-7-[8-amino-1-(4-{(1R)-1-hydroxy-1-[3-(trifluoromethyl)phenyl]ethyl}phenyl)imidazo [1,5-a]pyrazin-3-yl]-1,1-difluorooctahydro-4H-quinolizin-4-one] | 556 | 7110 | –
C[C@@](O)(c1ccc(-c2nc([C@H]3CC[C@@H]4N(C3)C(=O)CCC4(F)F)n3ccnc(N)c23)cc1)c1cccc(C(F)(F)F)c1 [Example 171, (7S,9aS)-7-[8-amino-1-(4-{(1R)-1-hydroxy-1-[3-(trifluoromethyl)phenyl]ethyl}phenyl)imidazo [1,5-a]pyrazin-3-yl]-1,1-difluorooctahydro-4H-quinolizin-4-one] | 89 | 7960 | –
C[C@@](O)(c1ccc(-c2nc([C@@H]3CC[C@@H]4[C@@H](C(F)(F)F)CC(=O)N4C3)n3ccnc(N)c23)cc1)c1cccc(C(F)(F)F)c1 [Example 172, (1S,6R,8aR)-6-[8-amino-1-(4-{(1R)-1-hydroxy-1-[3-(trifluoromethyl)phenyl]ethyl}phenyl)imidazo [1,5-a]pyrazin-3-yl]-1-(trifluoromethyl) hexahydroindolizin-3(2H)-one] | 258 | 5320 | –
C[C@@](O)(c1ccc(-c2nc([C@@H]3CC[C@H]4CCC(=O)N4C3)n3c(C(F)(F)F)cnc(N)c23)cc1)c1cccc(C(F)(F)F)c1 [Example 173, (6R,8aS)-6-[8-amino-1-(4-{(1R)-1-hydroxy-1-[3-(trifluoromethyl)phenyl]ethyl}phenyl)-5-(trifluoromethyl)imidazo [1,5-a]pyrazin-3-yl]hexahydroindolizin-3(2H)-one] | 22.2 | 5110 | –
C[C@@](O)(c1ccc(-c2nc([C@H]3CC[C@@H]4COCC(=O)N4C3)n3c(Cl)cnc(N)c23)cc1)c1cccc(C(F)(F)F)c1 [Example 174, (7S,9aR)-7-[8-amino-5-chloro-1-(4-{(1R)-1-hydroxy-1-[3-(trifluoromethyl)phenyl]ethyl}phenyl)imidazo [1,5-a]pyrazin-3-yl]hexahydropyrido[2,1-c][1,4]oxazin-4(3H)-one] | 85.7 | 1160 | –
C[C@@](O)(c1ccc(-c2nc([C@@H]3CC[C@H]4COCC(=O)N4C3)n3c(Cl)cnc(N)c23)cc1)c1cccc(C(F)(F)F)c1 [Example 175, (7R,9aS)-7-(8-amino-5-chloro-1-(4-{(1R)-1-hydroxy-1-[3-(trifluoromethyl)phenyl]ethyl}phenyl)imidazo [1,5-a]pyrazin-3-yl]hexahydropyrido[2,1-c][1,4]oxazin-4(3H)-one] | 1.5 | 1380 | –
C[C@@](O)(c1ccc(-c2nc([C@H]3CN4C(=O)COC[C@@H]4CO3)n3ccnc(N)c23)cc1)c1cccc(C(F)(F)F)c1 [Example 176, (7R,9aR)-7-[8-amino-1-(4-{(1R)-1-hydroxy-1-[3-(trifluoromethyl)phenyl]ethyl}phenyl)imidazo [1,5-a]pyrazin-3-yl]tetrahydro-1H-[1,4]oxazino[3,4-c][1,4]oxazin-4(3H)-one] | 7.5 | 4270 | –
CC1(C)CC(=O)N2C[C@H](c3nc(-c4ccc([C@@](C)(O)c5cccc(C(F)F)c5)cc4)c4c(N)nccn34)CC[C@H]21 [Example 177, (6R,8aS)-6-[8-amino-1-(4-{(1R)-1-[3-(difluoromethyl)phenyl]-1-hydroxyethyl}phenyl)imidazo[1,5-a]pyrazin-3-yl]-1,1-dimethylhexahydroindolizin-3(2H)-one] | 0.1 | 1830 | –
C[C@@](O)(c1ccc(-c2nc([C@@H]3CC[C@H]4C(C(F)(F)F)CC(=O)N4C3)n3ccnc(N)c23)cc1)c1cccc(C(F)(F)F)c1 (stereo partly drawn) [Example 179, (1R,6R,8aS)-6-[8-amino-1-(4-{(1R)-1-hydroxy-1-[3-(trifluoromethyl)phenyl]ethyl}phenyl)imidazo [1,5-a]pyrazin-3-yl]-1-(trifluoromethyl) hexahydroindolizin-3(2H)-one] | 3.5 | 3300 | –
C[C@@](O)(c1ccc(-c2nc([C@@H]3CC[C@H]4C(C(F)(F)F)CC(=O)N4C3)n3ccnc(N)c23)cc1)c1cccc(C(F)(F)F)c1 (stereo partly drawn) [Example 180, (1R,6R,8aS)-6-[8-amino-1-(4-{(1R)-1-hydroxy-1-[3-(trifluoromethyl)phenyl]ethyl}phenyl)imidazo [1,5-a]pyrazin-3-yl]-1-(trifluoromethyl) hexahydroindolizin-3(2H)-one] | 4.2 | – | 2460
